Assay results: ChEMBL document CHEMBL1127121, “Benzofuran based angiotensin II antagonists related to GR117289: Part III; GR138950, a triflamide with high oral bioavailability” (Bioorg Med Chem Lett, 1993)

How the values were obtained:
[1] = target: T1, Type-1 angiotensin II receptor (Oryctolagus cuniculus) (UniProt P34976); assay: Affinity for Angiotensin II receptor, type 1 by measuring its ability to antagonise the contractile effect of AngII in rabbit isolated thoracic aorta; type: functional, tissue-based
T1 sequence (whole entry): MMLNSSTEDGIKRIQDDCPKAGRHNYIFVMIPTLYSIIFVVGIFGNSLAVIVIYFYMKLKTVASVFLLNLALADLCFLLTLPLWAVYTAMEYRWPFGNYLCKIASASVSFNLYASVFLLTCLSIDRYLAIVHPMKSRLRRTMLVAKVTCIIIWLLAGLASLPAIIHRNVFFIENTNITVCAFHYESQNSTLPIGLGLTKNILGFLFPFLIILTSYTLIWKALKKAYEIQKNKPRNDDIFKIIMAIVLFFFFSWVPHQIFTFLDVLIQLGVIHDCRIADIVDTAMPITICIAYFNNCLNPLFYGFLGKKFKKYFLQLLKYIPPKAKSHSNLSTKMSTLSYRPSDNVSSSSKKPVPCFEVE

[2] = The compound was evaluated for volume of distribution in rat; type: ADME, organism-based; settings: in vivo
[3] = The compound was evaluated for plasma half life period in rat; type: ADME, organism-based
[4] = The compound was evaluated for plasma clearance in rat; type: ADME, organism-based; settings: read-out: Clp
[5] = Bioavailability in rat; type: ADME, organism-based; settings: in vivo

| pKB [1] | Vd [2] [L/kg] | half-life [3] [h] | clearance [4] [mL/min/kg] | bioavailability [5] [%] | SMILES |
| --- | --- | --- | --- | --- | --- |
| 9.2 |  |  |  |  | CCc1nc(C)c(C(=O)NCC(F)(F)F)n1Cc1ccc2oc(-c3ccccc3NS(=O)(=O)C(F)(F)F)c(Br)c2c1 |
| 9.7 |  |  |  |  | CCc1nc(C2CC2)c(C(=O)NC)n1Cc1ccc2oc(-c3ccccc3NS(=O)(=O)C(F)(F)F)c(Br)c2c1 |
| 9 | 2.4 | 3.2 | 8.9 | 79 | CCc1nc(C2CC2)c(C(N)=O)n1Cc1ccc2oc(-c3ccccc3NS(=O)(=O)C(F)(F)F)c(Br)c2c1 [SAPRISARTAN] |
| 9.5 |  |  |  |  | CCNC(=O)c1c(C)nc(CC)n1Cc1ccc2oc(-c3ccccc3NS(=O)(=O)C(F)(F)F)c(Br)c2c1 |
| 8.1 |  |  |  |  | CCc1nc(C(C)C)c(C(=O)NC)n1Cc1ccc2oc(-c3ccccc3NS(=O)(=O)C(F)(F)F)c(Br)c2c1 |
| 9 |  |  |  |  | CCc1nc(CC)n(Cc2ccc3oc(-c4ccccc4NS(=O)(=O)C(F)(F)F)c(Br)c3c2)c1C(=O)NC |
| < 8 |  |  |  |  | CCc1nc(CC(C)C)c(C(=O)NC)n1Cc1ccc2oc(-c3ccccc3NS(=O)(=O)C(F)(F)F)c(Br)c2c1 |
| 9 | 4.3 | 1.2 | 42 | 95 | CCc1nc(C)c(C(=O)NC)n1Cc1ccc2oc(-c3ccccc3NS(=O)(=O)C(F)(F)F)c(Br)c2c1 |
| 9 |  |  |  |  | CCc1nc(C)c(C(N)=O)n1Cc1ccc2oc(-c3ccccc3NS(=O)(=O)C(F)(F)F)c(Br)c2c1 |
|  | 0.5 | 8 | 0.8 | 3 | CCCCc1nc(Cl)c(C(=O)O)n1Cc1ccc2oc(-c3ccccc3-c3nn[nH]n3)c(Br)c2c1 [ZOLASARTAN] |
| 9.1 |  |  |  |  | CCc1nc(C)c(C(=O)N(C)C)n1Cc1ccc2oc(-c3ccccc3NS(=O)(=O)C(F)(F)F)c(Br)c2c1 |
